Source: patent US20240208994A1, “PLASMA KALLIKREIN INHIBITORS” (Merck Sharp & Dohme LLC, priority 2021, published 2024)

Legend:
human factor XIa = human factor XIa (Homo sapiens, UniProt P03951); assay: Factor XIa Assay; type: biochemical; conditions: human factor XIa 0.04 nM, 30 min pre-incubation at 25° C., substrate GPR-AFC, pH 7.4, 60 min incubation; read-out: FXIa IC50
Protocol: (§1) The effectiveness of a compound of the present invention as an inhibitor of Coagulation factor XIa can be determined using a relevant purified serine protease, and an appropriate synthetic substrate. The rate of hydrolysis of the chromogenic or fluorogenic substrate by the relevant serine protease was measured both in the absence and presence of compounds of the present invention. Assays were conducted at rt or at 37° C. […] A decrease in the rate of fluorescence change in the presence of inhibitor is indicative of enzyme inhibition. Such methods are known to one skilled in the art. The results of this assay are expressed as the half-maximal inhibitory concentrations (IC50), or the inhibitory constant, Ki.
Compounds were pre-incubated for 30 min at 25° C. with human (0.04 nM) factor XIa in 50 mM HEPES buffer with 150 mM sodium chloride, 5 mM calcium chloride, 0.1% PEG 8000, pH 7.4. factor XIa enzymatic activity was determined by addition of the substrate glycine-proline-arginine-7-amido-4-trifluoromethylcoumarin (GPR-AFC) and measurement of the fluorescence at 400/505 nm after a 60 min incubation at 25° C. The % inhibition for each data point was calculated from the data and analyzed using the log (inhibitor) vs. response four parameters equation to determine the half-maximal inhibitory concentrations (IC50). The IC50 were converted to equilibrium inhibitory constants (Ki) using the Cheng-Prusoff equation.

Human plasma kallikrein = target: T1, Human plasma kallikrein (Homo sapiens, UniProt P03952); assay: Plasma Kallikrein Assay; type: biochemical; conditions: purified Human plasma kallikrein 0.5 nM, substrate Acetyl-K-P-R-AFC, HEPES pH 7.4, fluorescence 405 Ex/510 Em; read-out: PKal IC50
T1 construct: yields a heavy chain (371 amino acids) and a light chain (248 amino acids); purchased Enzyme Research Laboratories
Protocol: as §1, with “plasma kallikrein” for “Coagulation factor XIa”
Plasma kallikrein determinations were made in 50 mM HEPES buffer at pH 7.4 containing 150 mM NaCl, 5 mM CaCl2), and 0.1% PEG 8000 (polyethylene glycol: Fisher Scientific). Determinations were made using purified Human plasma kallikrein at a final concentration of 0.5 nM (Enzyme Research Laboratories) and the synthetic substrate, Acetyl-K-P-R-AFC (Sigma #C6608) at a concentration of […].
Activity assays were performed by diluting a stock solution of substrate at least tenfold to a final concentration ≤0.2 Km into a solution containing enzyme or enzyme equilibrated with inhibitor. Times required to achieve equilibration between enzyme and inhibitor were determined in control experiments. The reactions were performed under linear progress curve conditions and fluorescence increase measured at 405 Ex/510 Em nm. Values were converted to percent inhibition of the control reaction (after subtracting 100% Inhibition value). IC50 was determined by inflection point from a four parameter logistic curve fit. Ki was calculated using the Cheng Prusoff equation, Ki=IC50/(1+([S]/Km)).

T1 sequence (P03952 391-638 limits assumed): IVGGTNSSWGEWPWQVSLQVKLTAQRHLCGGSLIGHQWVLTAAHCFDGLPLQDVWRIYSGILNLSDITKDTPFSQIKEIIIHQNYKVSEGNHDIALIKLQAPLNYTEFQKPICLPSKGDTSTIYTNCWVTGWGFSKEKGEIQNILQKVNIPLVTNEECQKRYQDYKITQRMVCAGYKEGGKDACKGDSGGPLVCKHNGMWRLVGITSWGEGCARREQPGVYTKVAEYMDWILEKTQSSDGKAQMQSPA
T1 sequence (P03952 20-390 partner limits assumed): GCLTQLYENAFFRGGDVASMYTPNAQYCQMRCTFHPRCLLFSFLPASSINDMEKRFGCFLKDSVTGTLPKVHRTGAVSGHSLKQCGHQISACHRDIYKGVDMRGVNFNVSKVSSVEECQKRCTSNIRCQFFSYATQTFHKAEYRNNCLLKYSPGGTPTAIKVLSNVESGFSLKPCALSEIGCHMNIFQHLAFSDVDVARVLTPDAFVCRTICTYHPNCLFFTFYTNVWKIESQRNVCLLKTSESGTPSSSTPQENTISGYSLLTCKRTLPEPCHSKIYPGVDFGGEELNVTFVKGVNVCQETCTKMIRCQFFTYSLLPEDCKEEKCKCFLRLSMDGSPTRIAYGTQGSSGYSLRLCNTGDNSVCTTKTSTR
human factor XIa, sequence (P03951 388-625 limits assumed): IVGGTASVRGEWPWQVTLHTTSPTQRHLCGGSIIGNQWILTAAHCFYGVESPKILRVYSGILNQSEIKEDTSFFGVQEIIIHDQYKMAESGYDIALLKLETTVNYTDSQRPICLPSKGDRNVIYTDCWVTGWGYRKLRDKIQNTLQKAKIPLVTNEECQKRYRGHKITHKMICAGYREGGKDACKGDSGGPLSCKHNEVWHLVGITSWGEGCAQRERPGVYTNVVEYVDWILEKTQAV
human factor XIa, sequence (P03951 19-387 partner limits assumed): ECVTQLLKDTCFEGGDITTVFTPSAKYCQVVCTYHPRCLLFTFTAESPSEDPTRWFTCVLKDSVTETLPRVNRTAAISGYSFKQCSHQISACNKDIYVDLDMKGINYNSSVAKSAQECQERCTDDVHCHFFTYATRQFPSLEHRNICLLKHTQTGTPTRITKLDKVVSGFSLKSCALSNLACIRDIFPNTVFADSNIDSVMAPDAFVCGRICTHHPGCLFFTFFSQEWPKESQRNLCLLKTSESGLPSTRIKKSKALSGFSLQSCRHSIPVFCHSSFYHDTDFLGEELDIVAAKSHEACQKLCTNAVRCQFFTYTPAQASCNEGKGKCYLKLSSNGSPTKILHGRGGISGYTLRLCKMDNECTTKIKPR

Row | SMILES | IC50 (human factor XIa) | IC50 (Human plasma kallikrein)
1 | Nc1cc(-c2ccc(F)cc2)nn1CC(=O)N1CC[C@@]2(C1)OC(=O)Nc1ccc(Cl)c(F)c12 [Example 1, (R)-1′-(2-(5-Amino-3-(4-fluorophenyl)-1H-pyrazol-1-yl)acetyl)-6-chloro-5-fluorospiro[benzo[d][1,3]oxazine-4,3′-pyrrolidin]-2(1H)-one 2,2,2-trifluoroacetate] | 513 nM | 9.9 nM
2 | Nc1cc(-c2ccc3c(c2)OCO3)nn1CC(=O)N1CC[C@@]2(C1)OC(=O)Nc1ccc(Cl)c(F)c12 [Example 2, (R)-1′-(2-(5-Amino-3-(benzo[d][1,3]dioxol-5-y1)-1H-pyrazol-1-yl)acetyl)-6-chloro-5-fluorospiro[benzo[d][1,3]oxazine-4,3′-pyrrolidin]-2(1H)-one] | 653 nM | 8 nM
3 | CC1(c2cc(N)n(CC(=O)N3CC[C@@]4(C3)OC(=O)Nc3ccc(Cl)c(F)c34)n2)CC1 [Example 3, (R)-1′-(2-(5-Amino-3-(1-methylcyclopropyl)-1H-pyrazol-1-yl)acetyl)-6-chloro-5-fluorospiro[benzo[d][1,3]oxazine-4,3′-pyrrolidin]-2(1H)-one] | 347 nM | 37.8 nM
4 | Nc1cc(C2CCCC2)nn1CC(=O)N1CC[C@@]2(C1)OC(=O)Nc1ccc(Cl)c(F)c12 [Example 4, (R)-1′-(2-(5-Amino-3-cyclopenty1-1H-pyrazol-1-yl)acetyl)-6-chloro-5-fluorospiro[benzo[d][1,3]oxazine-4,3′-pyrrolidin]-2(1H)-one] | 315 nM | 16.3 nM
5 | Nc1cc(C2CCOCC2)nn1CC(=O)N1CC[C@@]2(C1)OC(=O)Nc1ccc(Cl)c(F)c12 [Example 5, (R)-1′-(2-(5-Amino-3-(tetrahydro-2H-pyran-4-y1)-1H-pyrazol-1-yl)acetyl)-6-chloro-5-fluorospiro[benzo[d][1,3]oxazine-4,3′-pyrrolidin]-2(1H)-one] | 685 nM | 30.6 nM
6 | COc1ccc(-c2cc(N)n(CC(=O)N3CC[C@@]4(C3)OC(=O)Nc3ccc(Cl)c(F)c34)n2)cc1 [Example 6, (R)-1′-(2-(5-Amino-3-(4-methoxyphenyl)-1H-pyrazol-1-yl)acetyl)-6-chloro-5-fluorospiro[benzo[d][1,3]oxazine-4,3′-pyrrolidin]-2(1H)-one] | 904 nM | 10.1 nM
7 | Nc1cc(-c2ccc(OC(F)(F)F)cc2)nn1CC(=O)N1CC[C@@]2(C1)OC(=O)Nc1ccc(Cl)c(F)c12 [Example 7, (R)-1′-(2-(5-Amino-3-(4-(trifluoromethoxy)phenyl)-1H-pyrazol-1-yl)acetyl)-6-chloro-5-fluorospiro[benzo[d][1,3]oxazine-4,3′-pyrrolidin]-2(1H)-one] | 4140 nM | 49 nM
8 | COc1cccc(-c2cc(N)n(CC(=O)N3CC[C@@]4(C3)OC(=O)Nc3ccc(Cl)c(F)c34)n2)c1 [Example 8, (R)-1′-(2-(5-Amino-3-(3-methoxyphenyl)-1H-pyrazol-1-yl)acetyl)-6-chloro-5-fluorospiro[benzo[d][1,3]oxazine-4,3′-pyrrolidin]-2(1H)-one] | 679 nM | 11.8 nM
9 | Nc1cc(-c2cccnc2)nn1CC(=O)N1CC[C@@]2(C1)OC(=O)Nc1ccc(Cl)c(F)c12 [Example 9, (R)-1′-(2-(5-Amino-3-(pyridin-3-yl)-1H-pyrazol-1-yl)acetyl)-6-chloro-5-fluorospiro[benzo[d][1,3]oxazine-4,3′-pyrrolidin]-2(1H)-one] | 389 nM | 12.9 nM
10 | Nc1cc(C2CC2)nn1CC(=O)N1CC[C@@]2(C1)OC(=O)Nc1ccc(Cl)c(F)c12 [Example 10] | 506 nM | 27.4 nM
11 | Nc1cc(C2CC(F)(F)C2)nn1CC(=O)N1CC[C@@]2(C1)OC(=O)Nc1ccc(Cl)c(F)c12 [Example 11, (R)-1′-(2-(5-Amino-3-(3,3-difluorocyclobutyl)-1H-pyrazol-1-yl)acetyl)-6-chloro-5-fluorospiro[benzo[d][1,3]oxazine-4,3′-pyrrolidin]-2(1H)-one] | 672 nM | 32.3 nM
12 | Nc1cc(-c2cccc(C(F)(F)F)c2)nn1CC(=O)N1CC[C@@]2(C1)OC(=O)Nc1ccc(Cl)c(F)c12 [Example 12, (R)-1′-(2-(5-Amino-3-(3-(trifluoromethyl)phenyl)-1H-pyrazol-1-yl)acetyl)-6-chloro-5-fluorospiro[benzo[d][1,3]oxazine-4,3′-pyrrolidin]-2(1H)-one] | 2710 nM | 37.5 nM
13 | Nc1c2c(nn1CC(=O)N1CC[C@@]3(C1)OC(=O)Nc1ccc(Cl)c(F)c13)CCC2 [Example 13, (R)-1′-(2-(3-Amino-5,6-dihydrocyclopenta[c]pyrazo1-2(4H)-yl)acetyl)-6-chloro-5-fluorospiro[benzo[d] [1,3]oxazine-4,3′-pyrrolidin]-2(1H)-one] | 277 nM | 38.8 nM
14 | Nc1c2c(nn1CC(=O)N1CC[C@@]3(C1)OC(=O)Nc1ccc(Cl)c(F)c13)-c1ccccc1C2 [Example 14, (R)-1′-(2-(3-Aminoindeno[1,2-c]pyrazol-2(4H)-y1)acetyl)-6-chloro-5-fluorospiro[benzo[d] [1,3]oxazine-4,3′-pyrrolidin]-2(1H)-one] | 29 nM | 3.3 nM
15 | CC1(C)CCc2c1nn(CC(=O)N1CC[C@@]3(C1)OC(=O)Nc1ccc(Cl)c(F)c13)c2N [Example 15, (R)-1′-(2-(3-Amino-6,6-dimethyl-5,6-dihydrocyclopenta[c]pyrazo1-2(4H)-yl)acetyl)-6-chloro-5-fluorospiro[benzo[d][1,3]oxazine-4,3′-pyrrolidin]-2(1H)-one] | 100 nM | 40.6 nM
16 | Nc1cc(-c2cccc(Cl)c2)nn1CC(=O)N1CCC[C@@]2(C1)OC(=O)Nc1ccc(Cl)c(F)c12 [Example 16, (R)-1′-(2-(5-Amino-3-(3-chlorophenyl)-1H-pyrazol-1-yl)acetyl)-6-chloro-5-fluorospiro[benzo[d][1,3]oxazine-4,3′-piperidin]-2(1H)-one] | 2820 nM | 20.4 nM
17 | Nc1cc(-c2ccc(F)cc2)nn1CC(=O)N1CCC[C@@]2(C1)OC(=O)Nc1ccc(Cl)c(F)c12 [Example 17, (R)-1′-(2-(5-Amino-3-(4-fluorophenyl)-1H-pyrazol-1-yl)acetyl)-6-chloro-5-fluorospiro[benzo[d][1,3]oxazine-4,3′-piperidin]-2(1H)-one] | 2550 nM | 21 nM
18 | Nc1c2c(nn1CC(=O)N1CCC[C@@]3(C1)OC(=O)Nc1ccc(Cl)c(F)c13)-c1ccccc1C2 [Example 18, (R)-1′-(2-(3-Aminoindeno[1,2-c]pyrazol-2(4H)-yl)acetyl)-6-chloro-5-fluorospiro[benzo[d][1,3]oxazine-4,3′-piperidin]-2(1H)-one] | 88 nM | 2.4 nM
19 | Nc1c(Cl)c(-c2ccc(F)cc2F)nn1CC(=O)N1CC[C@@]2(C1)OC(=O)Nc1ccc(Cl)c(F)c12 [Example 19, (R)-1′-(2-(5-Amino-4-chloro-3-(2,4-difluorophenyl)-1H-pyrazol-1-yl)acetyl)-6-chloro-5-fluorospiro[benzo[d][1.3]oxazine-4,3′-pyrrolidin]-2(1H)-one 2,2,2-trifluoroacetate] | 134 nM | 30.3 nM
20 | Nc1c(Cl)c(-c2ccccc2)nn1CC(=O)N1CC[C@@]2(C1)OC(=O)Nc1ccc(Cl)c(F)c12 [Example 20, (R)-1′-(2-(5-Amino-4-chloro-3-phenyl-1H-pyrazol-1-yl)acetyl)-6-chloro-5-fluorospiro[benzo[d][1,3]oxazine-4,3′-pyrrolidin]-2(1H)-one] | 214 nM | 42.3 nM
21 | Nc1c(Cl)c(-c2ccc(F)cc2F)nn1CC(=O)N1CCC[C@@]2(C1)OC(=O)Nc1ccc(Cl)c(F)c12 [Example 21, (R)-1′-(2-(5-Amino-4-chloro-3-(2,4-difluorophenyl)-1H-pyrazol-1-yl)acetyl)-6-chloro-5-fluorospiro[benzo[d][1,3]oxazine-4,3′-piperidin]-2(1H)-one] | 325 nM | 19 nM
